Measured values reported in ChEMBL document CHEMBL3045959, “QSAR studies on substituted 3- or 4-phenyl-1,8-naphthyridine derivatives as antimicrobial agents” (2012).

Columns and labels:
Assay type in all cases: functional
Staphylococcus aureus = assay: Antibacterial activity against Staphylococcus aureus by […]
[1] = tested on: Mycobacterium tuberculosis; assay: Antimycobacterial activity against Mycobacterium tuberculosis H37Rv at 6.25 ug/ml
Escherichia coli = assay: Antibacterial activity against Escherichia coli by […]

Row | SMILES | inhibition zone (IZ) (Staphylococcus aureus) [mm] | -log(inh/100-inh) [1] | inhibition zone (IZ) (Escherichia coli) [mm]
1 | O=[N+]([O-])c1cc2cc(-c3ccccc3)c(N3CCCCC3)nc2nc1N1CCCCC1 | 30 | 0.5754 | 
2 | c1ccc(-c2cc(N3CCOCC3)nc3nc(N4CCOCC4)ccc23)cc1 | 12 |  | 
3 | Nc1cc2cc(-c3ccccc3)c(N3CCCCC3)nc2nc1N1CCCCC1 |  | 0.3889 | 26
4 | Oc1ccc2c(N3CCOCC3)cc(N3CCOCC3)nc2n1 |  | -1.0048 | 
5 | Cc1ccc2c(N3CCOCC3)c(Cc3ccccc3)c(N3CCCCC3)nc2n1 |  | -0.6021 | 
6 | CCOC(=O)N1CCN(c2nc3nc(N4CCOCC4)ccc3cc2-c2ccccc2)CC1 | 13 | 0.2499 | 17
7 | COc1ccc2c(-c3ccccc3)cc(N3CCCCC3)nc2n1 |  | 0.7533 | 20
8 | Nc1ccc2c(-c3ccccc3)cc(N3CCCCC3)nc2n1 | 14 | 1.0048 | 20
9 | Clc1ccc2c(N3CCCCC3)cc(N3CCOCC3)nc2n1 |  | -1.0607 | 
10 | O=C(CCc1ccc2c(-c3ccccc3)cc(O)nc2n1)OCCN1CCNCC1 |  | -0.7202 | 
11 | Nc1ccc2c(N3CCCCC3)cc(N3CCOCC3)nc2n1 |  | -1.195 | 
12 | COC(=O)N1CCN(c2nc3nc(OC)ccc3cc2-c2ccccc2)CC1 | 16 | -0.1224 | 12
13 | Nc1ccc2c(-c3ccccc3)cc(N3CCOCC3)nc2n1 | 20 | -0.0522 | 33
14 | CC(=O)Nc1ccc2c(Cl)cc(N3CCCCC3)nc2n1 |  | -1.0607 | 
15 | CCOC(=O)N1CCN(c2ccc3cc(-c4ccccc4)c(N4CCN(C(=O)OCC)CC4)nc3n2)CC1 | 17 | -0.0348 | 18
16 | COc1ccc2cc(-c3ccccc3)c(N3CCNCC3)nc2n1 | 12 | 0.3076 | 16
17 | COc1ccc2c(-c3ccccc3)cc(CCN3CCNCC3)nc2n1 |  | 0.4102 | 
18 | c1ccc(-c2cc3ccc(N4CCNCC4)nc3nc2N2CCCCC2)cc1 | 18 | 0.908 | 14
19 | Clc1ccc2c(-c3ccccc3)cc(CCN3CCNCC3)nc2n1 |  | 0.3274 | 16
20 | Nc1ccc2c(N3CCCCC3)cc(N3CCNCC3)nc2n1 |  | 0.4102 | 

Row | SMILES | inhibition zone (IZ) (Staphylococcus aureus) [mm] | -log(inh/100-inh) [1] | inhibition zone (IZ) (Escherichia coli) [mm]
21 | Oc1ccc2c(Cl)cc(N3CCOCC3)nc2n1 |  | -1.6902 | 
22 | Cc1ccc2c(N3CCCCC3)c(Cc3ccccc3)c(N3CCCCC3)nc2n1 |  | 1.3802 | 
23 | c1cc2c(N3CCCCC3)cc(N3CCOCC3)nc2nc1N1CCOCC1 |  | -0.908 | 
24 | c1cc2c(N3CCOCC3)cc(N3CCOCC3)nc2nc1N1CCOCC1 |  | -0.908 | 
25 | Cc1ccc2c(Cl)c(Cc3ccccc3)c(N3CCCCC3)nc2n1 |  | -0.1581 | 
26 | Oc1ccc2c(-c3ccccc3)cc(CCN3CCNCC3)nc2n1 | 12 | -0.3889 | 
27 | c1ccc(-c2cc(N3CCCCC3)nc3nc(N4CCCCC4)ccc23)cc1 | 14 | 1.9956 | 28
28 | Cc1ccc2c(Cl)c(C)c(Cl)nc2n1 |  | -1.9956 | 
29 | Oc1ccc2c(-c3ccccc3)cc(N3CCCCC3)nc2n1 | 24 |  | 
30 | Clc1ccc2c(N3CCOCC3)cc(N3CCOCC3)nc2n1 |  | -1.9956 | 
31 | Cc1ccc2c(N3CCOCC3)c(C)c(N3CCCCC3)nc2n1 |  | -0.908 | 
32 | Clc1ccc2c(-c3ccccc3)cc(N3CCOCC3)nc2n1 | 18 | -0.2499 | 12
33 | c1ccc(-c2cc3ccc(N4CCOCC4)nc3nc2N2CCCCC2)cc1 | 22 | 0.6886 | 26
34 | Oc1cc(-c2ccccc2)c2ccc(N3CCNCC3)nc2n1 |  | -0.908 | 
35 | Cc1ccc2c(Cl)c(Cc3ccccc3)c(N3CCOCC3)nc2n1 |  | -0.6021 | 
36 | Clc1ccc2c(Cl)cc(N3CCOCC3)nc2n1 |  | -0.2126 | 
37 | Nc1ccc(-c2ccc3ccc(-c4ccc(N5CCNCC5)cc4)nc3n2)cc1 | 16 | 1.195 | 32
38 | Nc1ccc2c(-c3ccccc3)cc(CCN3CCNCC3)nc2n1 | 16 | 0.3475 | 36
39 | CCOC(=O)N1CCN(c2ccc3cc(-c4ccccc4)c(N4CCCCC4)nc3n2)CC1 | 15 | 1.0048 | 18
40 | c1ccc(-c2cc3ccc(N4CCNCC4)nc3nc2N2CCNCC2)cc1 | 14 | 0.432 | 12

Row | SMILES | inhibition zone (IZ) (Staphylococcus aureus) [mm] | -log(inh/100-inh) [1] | inhibition zone (IZ) (Escherichia coli) [mm]
41 | Oc1ccc(-c2ccc3c(-c4ccccc4)cc(-c4ccc(N5CCNCC5)cc4)nc3n2)cc1 | 14 | -0.3274 | 14
42 | COc1ccc2c(-c3ccccc3)cc(N3CCOCC3)nc2n1 |  | -0.2689 | 24
43 | c1ccc(-c2cc3ccc(N4CCCCC4)nc3nc2N2CCNCC2)cc1 |  | 0.8653 | 18
44 | c1cc(N2CCNCC2)ccc1-c1ccc2ccc(-c3ccc(N4CCNCC4)cc3)nc2n1 | 12 | -0.0522 | 18
45 | c1ccc(-c2cc3ccc(N4CCCCC4)nc3nc2N2CCCCC2)cc1 | 16 | 1.9956 | 20
46 | COc1ccc(-c2ccc3ccc(-c4ccc(N5CCNCC5)cc4)nc3n2)cc1 | 28 | 0.7884 | 
47 | Clc1ccc2c(-c3ccccc3)cc(N3CCCCC3)nc2n1 | 26 | 0.368 | 
48 | CCOC(=O)N1CCN(c2nc3nc(Cl)ccc3cc2-c2ccccc2)CC1 |  | 0.3076 | 24
49 | Cc1ccc2c(Cl)c(Cc3ccccc3)c(C)nc2n1 |  | 0.0872 | 
50 | c1ccc(-c2cc(CCN3CCNCC3)nc3nc(CCN4CCNCC4)ccc23)cc1 | 12 | 0.6297 | 12
51 | Cc1ccc2c(Cl)c(C)c(N3CCCCC3)nc2n1 |  | -0.6886 | 
52 | Clc1ccc(-c2ccc3c(-c4ccccc4)cc(-c4ccc(N5CCNCC5)cc4)nc3n2)cc1 | 22 | 0.0871 | 14
53 | c1cc2c(N3CCCCC3)cc(N3CCOCC3)nc2nc1N1CCCCC1 |  | -0.1224 | 
54 | Nc1ccc2c(Cl)cc(N3CCCCC3)nc2n1 |  | -0.2126 | 
55 | CCOC(=O)N1CCN(c2cc(-c3ccccc3)c3ccc(N4CCNCC4)nc3n2)CC1 | 23 | 1.0607 | 25
56 | Clc1cc(N2CCOCC2)nc2nc(N3CCCCC3)ccc12 |  | -0.432 | 
57 | Oc1ccc2c(-c3ccccc3)cc(N3CCOCC3)nc2n1 | 20 |  | 26
58 | Nc1ccc2cc(-c3ccccc3)c(N3CCCCC3)nc2n1 | 18 | 0.1581 | 
